Source: article PMC3179684 (Toxicological Sciences, 2011)
Entries after “also recorded” stand apart in the source; their conditions may differ. Where two headings read alike, the source gives them in different places.

Assays:
epoxide hydrolase (EH) [1] = molecular target: T1, epoxide hydrolase (EH) (Mus musculus, UniProt Q9D379); experiment: EO elimination in mouse liver microsomes; format: in vitro ADME, B6C3F1 mice; settings: native pooled mouse liver microsomes vs heat-inactivated, 5 mg protein/ml
T1 sequence (Q9D379 1-455): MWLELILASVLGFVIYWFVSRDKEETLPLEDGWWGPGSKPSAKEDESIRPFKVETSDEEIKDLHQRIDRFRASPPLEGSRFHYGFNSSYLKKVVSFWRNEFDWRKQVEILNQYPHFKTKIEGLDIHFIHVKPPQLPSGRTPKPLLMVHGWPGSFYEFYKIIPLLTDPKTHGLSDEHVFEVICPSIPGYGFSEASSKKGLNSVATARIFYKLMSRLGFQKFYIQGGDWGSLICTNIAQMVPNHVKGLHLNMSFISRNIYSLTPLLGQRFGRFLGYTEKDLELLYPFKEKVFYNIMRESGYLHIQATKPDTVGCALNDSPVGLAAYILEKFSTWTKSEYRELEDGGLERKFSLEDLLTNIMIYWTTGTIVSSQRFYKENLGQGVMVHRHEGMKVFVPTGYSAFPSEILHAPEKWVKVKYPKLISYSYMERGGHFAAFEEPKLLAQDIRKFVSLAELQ

epoxide hydrolase (EH) [2] = molecular target: T2, epoxide hydrolase (EH) (Rattus norvegicus, UniProt P07687); experiment: EO elimination in rat liver microsomes; format: in vitro ADME, Fischer 344 rats; settings: native pooled rat liver microsomes vs heat-inactivated, 5 mg protein/ml
T2 sequence (P07687 1-455): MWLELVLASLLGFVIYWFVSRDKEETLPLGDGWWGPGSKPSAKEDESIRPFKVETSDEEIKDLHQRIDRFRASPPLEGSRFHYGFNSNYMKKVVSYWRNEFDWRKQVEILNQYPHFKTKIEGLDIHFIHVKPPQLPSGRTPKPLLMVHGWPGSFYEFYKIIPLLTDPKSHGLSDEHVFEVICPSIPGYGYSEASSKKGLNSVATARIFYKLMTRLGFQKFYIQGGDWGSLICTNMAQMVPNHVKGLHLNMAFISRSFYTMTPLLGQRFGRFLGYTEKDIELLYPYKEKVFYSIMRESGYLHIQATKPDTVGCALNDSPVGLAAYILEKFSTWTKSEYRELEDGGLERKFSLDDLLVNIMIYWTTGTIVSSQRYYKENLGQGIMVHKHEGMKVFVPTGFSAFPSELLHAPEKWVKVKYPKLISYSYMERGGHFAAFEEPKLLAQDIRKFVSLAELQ

epoxide hydrolase (EH) [3] = molecular target: T1, epoxide hydrolase (EH); experiment: EO elimination in mouse lung microsomes; format: in vitro ADME, B6C3F1 mice; settings: native pooled mouse lung microsomes vs heat-inactivated, 5 mg protein/ml
epoxide hydrolase (EH) [4] = molecular target: T2, epoxide hydrolase (EH); experiment: EO elimination in rat lung microsomes; format: in vitro ADME, Fischer 344 rats; settings: native pooled rat lung microsomes vs heat-inactivated, 5 mg protein/ml
CYP450 = experiment: EO incubation in pooled rat liver microsomes with NADPH-regenerating system; format: in vitro ADME, Fischer 344 rats; settings: rat liver microsomal incubation with NADPH-regenerating system
[5] = tested on: glutathione S-transferase (GST); experiment: GST-mediated EO elimination in mouse liver cytosol; format: in vitro ADME, B6C3F1 mice; settings: mouse pooled liver cytosol; taking a Km of 9 mmol/l
[6] = tested on: glutathione S-transferase (GST); experiment: GST-mediated EO elimination in rat liver cytosol; format: in vitro ADME, Fischer 344 rats; settings: rat pooled liver cytosol; taking a Km of 9 mmol/l
[7] = tested on: glutathione S-transferase (GST); experiment: GST-mediated EO elimination in human liver cytosol; format: in vitro ADME; settings: human pooled liver cytosol; taking a Km of 9 mmol/l
[8] = tested on: glutathione S-transferase (GST); experiment: GST-mediated EO elimination in mouse lung cytosol; format: in vitro ADME, B6C3F1 mice; settings: taking a Km of 9 mmol/l
[9] = tested on: glutathione S-transferase (GST); experiment: GST-mediated EO elimination in rat lung cytosol; format: in vitro ADME, Fischer 344 rats; settings: taking a Km of 9 mmol/l
[10] = Nonenzymatic conjugation with GSH; format: physicochemical; settings: GSH 15 mmol/l, 37°C, pH 7.4
Spontaneous = format: physicochemical; settings: MgCl2 containing potassium phosphate buffer pH 7.4, 37°C
[11] = calculated from the data of ref Brown et al. (1996); cited from earlier work
GSH levels in the livers = settings: Fischer rats exposed for 4 h to 1200 ppm EO; ref McKelvey and Zemaitis (1986); cited from earlier work
[12] = rat; ref Dunkelberg, 1982; Garman et al., 1985; Snellings et al., 1984; cited from earlier work
[13] = mouse; ref Dunkelberg, 1981; National Toxicology Program, 1987; cited from earlier work
[14] = humans; ref IARC (1994b); cited from earlier work
epoxide hydrolase (EH) [15] = molecular target: T3, epoxide hydrolase (EH) (Homo sapiens, UniProt P07099); experiment: EO elimination in human liver microsomes; settings: pooled native human liver microsomes, best fit (Berkeley Madonna)
T3 sequence (P07099 1-455): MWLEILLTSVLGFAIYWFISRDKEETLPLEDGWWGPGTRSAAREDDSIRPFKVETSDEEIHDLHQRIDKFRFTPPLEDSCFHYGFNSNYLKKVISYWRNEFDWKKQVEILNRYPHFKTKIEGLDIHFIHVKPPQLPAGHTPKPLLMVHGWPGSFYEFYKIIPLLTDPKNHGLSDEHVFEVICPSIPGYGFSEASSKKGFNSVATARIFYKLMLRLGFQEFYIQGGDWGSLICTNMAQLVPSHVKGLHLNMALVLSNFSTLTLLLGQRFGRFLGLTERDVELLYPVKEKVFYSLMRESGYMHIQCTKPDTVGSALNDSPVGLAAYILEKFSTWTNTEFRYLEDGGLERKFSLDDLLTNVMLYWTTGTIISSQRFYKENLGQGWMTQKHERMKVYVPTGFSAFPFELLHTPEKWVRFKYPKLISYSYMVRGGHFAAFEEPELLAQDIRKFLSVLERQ

C1CO1 [EO, ethylene oxide]
EH-catalyzed EO elimination (epoxide hydrolase (EH) [1]): not detectable; also recorded: no EH-catalyzed EO elimination was found | EH-catalyzed EO elimination (epoxide hydrolase (EH) [2]): not detectable; also recorded: no EH-catalyzed EO elimination was found | EH-catalyzed EO elimination (epoxide hydrolase (EH) [3]): no EH-catalyzed EO elimination was found | EH-catalyzed EO elimination (epoxide hydrolase (EH) [4]): no EH-catalyzed EO elimination was found | CYP-mediated EO elimination (CYP450): no CYP-mediated EO elimination was detected | Vmax of GST-mediated GSH conjugation with EO [5]: 251 nmol/min/mg protein | Vmax of GST-mediated GSH conjugation with EO [6]: 47.7 nmol/min/mg protein | Vmax of GST-mediated GSH conjugation with EO [7]: 10.3 nmol/min/mg protein | Vmax of GST-mediated GSH conjugation with EO [8]: 56.9 nmol/min/mg protein | Vmax of GST-mediated GSH conjugation with EO [9]: 16.0 nmol/min/mg protein | mean half-life of nonenzymatic conjugation with GSH [10]: 3.7 h | mean half-life of spontaneous hydrolysis (Spontaneous): 12.4 h | rate constant of the spontaneous hydrolysis (Spontaneous; mean ± SE, n = 36): 0.00093 ± 7e-05 min⁻¹ | rate constant of the nonenzymatic elimination [11]: 0.001 min⁻¹ | GSH levels in the livers (GSH levels in the livers): less than 20 % of the control value | carcinogenicity [12]: carcinogenic | carcinogenicity [13]: carcinogenic | IARC evaluation [14]: carcinogenic to humans | Vmax of EO elimination (epoxide hydrolase (EH) [15]): 14.35 nmol/min/mg protein
